# From paper PMC5564600 (Oncotarget, 2017)
# Read-outs that look alike come from different tables or passages of the source.
# Key:
# Experiment in all cases: biochemical
# Type in all cases: binding
# [1] = target: T1, panel of 442 kinases (Homo sapiens, UniProt P53667); conditions: kinase LIMK1; for remaining activity at 1 µM: read-out: % of control at 1 µM
# T1 construct: purchased Ambit Biosciences (scanMAXX KINOMEscan)
# [2] = target: T2, panel of 442 kinases (Homo sapiens, UniProt Q86YV6); conditions: kinase MYLK4; for remaining activity at 1 µM: read-out: % of control at 1 µM
# T2 construct: purchased Ambit Biosciences (scanMAXX KINOMEscan)
# T2 sequence (Q86YV6 1-388): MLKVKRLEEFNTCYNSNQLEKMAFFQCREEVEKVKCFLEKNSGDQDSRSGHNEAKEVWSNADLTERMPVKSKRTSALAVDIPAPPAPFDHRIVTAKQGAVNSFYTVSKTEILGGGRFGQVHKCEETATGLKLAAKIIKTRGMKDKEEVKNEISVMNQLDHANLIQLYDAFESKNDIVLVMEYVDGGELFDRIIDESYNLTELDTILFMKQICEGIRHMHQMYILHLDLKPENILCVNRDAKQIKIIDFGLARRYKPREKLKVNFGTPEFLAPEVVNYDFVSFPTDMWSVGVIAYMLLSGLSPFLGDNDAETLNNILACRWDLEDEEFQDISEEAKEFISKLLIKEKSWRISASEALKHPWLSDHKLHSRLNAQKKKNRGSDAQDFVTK
# [3] = target: T3, panel of 442 kinases (Homo sapiens, UniProt Q14680); conditions: kinase MELK; for remaining activity at 1 µM: read-out: % of control at 1 µM
# T3 construct: purchased Ambit Biosciences (scanMAXX KINOMEscan)
# T3 sequence (Q14680 whole entry): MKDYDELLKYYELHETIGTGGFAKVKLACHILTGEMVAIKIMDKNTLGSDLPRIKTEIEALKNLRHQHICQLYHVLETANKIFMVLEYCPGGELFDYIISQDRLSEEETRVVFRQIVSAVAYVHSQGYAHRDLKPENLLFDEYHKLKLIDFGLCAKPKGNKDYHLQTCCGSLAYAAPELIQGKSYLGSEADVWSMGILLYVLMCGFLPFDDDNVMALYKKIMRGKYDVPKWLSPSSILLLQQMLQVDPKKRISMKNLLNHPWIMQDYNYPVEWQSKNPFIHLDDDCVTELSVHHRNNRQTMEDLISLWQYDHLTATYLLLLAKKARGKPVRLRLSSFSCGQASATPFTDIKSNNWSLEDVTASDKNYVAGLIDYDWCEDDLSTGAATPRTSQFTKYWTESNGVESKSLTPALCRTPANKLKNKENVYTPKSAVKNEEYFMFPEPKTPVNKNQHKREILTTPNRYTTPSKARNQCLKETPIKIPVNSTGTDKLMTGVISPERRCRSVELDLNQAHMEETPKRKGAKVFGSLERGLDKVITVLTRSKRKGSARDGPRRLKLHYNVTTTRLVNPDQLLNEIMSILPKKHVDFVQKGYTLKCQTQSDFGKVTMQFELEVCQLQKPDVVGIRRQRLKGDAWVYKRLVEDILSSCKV
# [4] = target: T4, panel of 442 kinases (Homo sapiens, UniProt Q9H2X6); conditions: kinase HIPK2; for remaining activity at 1 µM: read-out: % of control at 1 µM
# T4 construct: purchased Ambit Biosciences (scanMAXX KINOMEscan)
# T4 sequence (Q9H2X6 whole entry): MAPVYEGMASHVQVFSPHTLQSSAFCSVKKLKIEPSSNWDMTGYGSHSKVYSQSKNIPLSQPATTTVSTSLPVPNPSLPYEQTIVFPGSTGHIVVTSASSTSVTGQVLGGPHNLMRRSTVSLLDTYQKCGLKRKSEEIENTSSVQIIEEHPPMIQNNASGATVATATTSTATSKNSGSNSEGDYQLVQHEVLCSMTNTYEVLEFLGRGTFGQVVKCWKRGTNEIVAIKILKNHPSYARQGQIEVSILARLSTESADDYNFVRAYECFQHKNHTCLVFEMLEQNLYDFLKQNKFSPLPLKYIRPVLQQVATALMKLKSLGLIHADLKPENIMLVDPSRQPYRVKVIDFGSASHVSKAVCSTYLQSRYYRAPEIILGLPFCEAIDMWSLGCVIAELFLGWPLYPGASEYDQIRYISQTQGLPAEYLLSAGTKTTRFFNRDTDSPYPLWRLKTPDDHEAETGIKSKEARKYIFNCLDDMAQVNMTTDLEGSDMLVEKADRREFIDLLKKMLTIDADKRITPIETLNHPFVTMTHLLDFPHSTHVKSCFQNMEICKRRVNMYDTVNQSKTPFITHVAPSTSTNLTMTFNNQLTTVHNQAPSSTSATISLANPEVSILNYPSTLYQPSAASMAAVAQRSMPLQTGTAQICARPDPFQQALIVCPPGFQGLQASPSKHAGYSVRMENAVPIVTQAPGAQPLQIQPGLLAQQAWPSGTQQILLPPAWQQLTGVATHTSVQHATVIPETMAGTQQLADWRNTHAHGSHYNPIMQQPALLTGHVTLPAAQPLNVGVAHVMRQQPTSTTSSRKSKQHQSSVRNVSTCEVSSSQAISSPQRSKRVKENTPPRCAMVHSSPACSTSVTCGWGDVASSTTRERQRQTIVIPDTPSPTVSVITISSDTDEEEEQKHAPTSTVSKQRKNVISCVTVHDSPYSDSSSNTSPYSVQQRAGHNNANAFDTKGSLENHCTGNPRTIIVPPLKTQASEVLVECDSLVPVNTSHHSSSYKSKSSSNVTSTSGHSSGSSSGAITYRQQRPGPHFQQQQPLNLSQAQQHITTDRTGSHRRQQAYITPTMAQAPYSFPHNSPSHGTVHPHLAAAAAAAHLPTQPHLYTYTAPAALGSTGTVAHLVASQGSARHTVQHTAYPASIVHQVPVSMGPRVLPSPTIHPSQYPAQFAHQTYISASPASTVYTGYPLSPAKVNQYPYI
# [5] = target: T5, panel of 442 kinases (Homo sapiens, UniProt P78362); conditions: kinase SRPK2; for remaining activity at 1 µM: read-out: SRPK2 (% of control at 1 µM)
# T5 construct: purchased Ambit Biosciences (scanMAXX KINOMEscan)
# T5 sequence (P78362 whole entry): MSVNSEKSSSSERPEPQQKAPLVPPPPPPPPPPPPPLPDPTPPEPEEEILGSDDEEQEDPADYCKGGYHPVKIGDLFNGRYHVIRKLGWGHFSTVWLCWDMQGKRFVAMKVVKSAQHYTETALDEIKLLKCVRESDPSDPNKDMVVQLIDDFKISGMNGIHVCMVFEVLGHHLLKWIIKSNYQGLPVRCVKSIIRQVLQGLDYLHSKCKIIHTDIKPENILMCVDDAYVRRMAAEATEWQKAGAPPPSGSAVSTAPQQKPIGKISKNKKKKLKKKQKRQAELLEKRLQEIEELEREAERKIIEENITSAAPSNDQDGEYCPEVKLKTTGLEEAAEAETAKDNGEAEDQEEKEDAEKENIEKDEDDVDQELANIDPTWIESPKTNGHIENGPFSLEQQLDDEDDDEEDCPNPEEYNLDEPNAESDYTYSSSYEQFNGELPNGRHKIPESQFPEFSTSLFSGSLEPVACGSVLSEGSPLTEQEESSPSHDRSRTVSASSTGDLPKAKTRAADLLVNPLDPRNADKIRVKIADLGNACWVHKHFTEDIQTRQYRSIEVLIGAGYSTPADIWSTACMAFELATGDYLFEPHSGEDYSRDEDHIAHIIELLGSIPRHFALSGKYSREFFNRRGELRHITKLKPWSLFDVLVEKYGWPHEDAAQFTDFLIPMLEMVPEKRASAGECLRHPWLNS
# [6] = target: T6, panel of 442 kinases (Homo sapiens, UniProt P00519, F317I); conditions: for remaining activity at 1 µM: read-out: % of control at 1 µM; for remaining activity at 10 µM: read-out: % of control at 10 µM
# T6 construct: purchased Ambit Biosciences (scanMAXX KINOMEscan)
# [7] = target: T7, panel of 442 kinases (Homo sapiens, UniProt P10721, D816V); conditions: kinase KIT(D816V), second of two lines so named (r207); for remaining activity at 1 µM: read-out: % of control at 1 µM
# T7 construct: purchased Ambit Biosciences (scanMAXX KINOMEscan)
# [8] = target: T8, panel of 442 kinases (Homo sapiens, UniProt P00519, T315I); conditions: for remaining activity at 1 µM: read-out: % of control at 1 µM; for remaining activity at 10 µM: read-out: % of control at 10 µM
# T8 construct: purchased Ambit Biosciences (scanMAXX KINOMEscan)
# [9] = target: T9, panel of 442 kinases (Homo sapiens, UniProt P00533, L858R/T790M); conditions: EGFR(L858R,T790M); for remaining activity at 1 µM: read-out: % of control at 1 µM
# T9 construct: purchased Ambit Biosciences (scanMAXX KINOMEscan)
# [10] = target: T10, panel of 442 kinases (Homo sapiens, UniProt P28482); conditions: ERK2; for remaining activity at 1 µM: read-out: % of control at 1 µM
# T10 construct: purchased Ambit Biosciences (scanMAXX KINOMEscan)
# T10 sequence (P28482 whole entry): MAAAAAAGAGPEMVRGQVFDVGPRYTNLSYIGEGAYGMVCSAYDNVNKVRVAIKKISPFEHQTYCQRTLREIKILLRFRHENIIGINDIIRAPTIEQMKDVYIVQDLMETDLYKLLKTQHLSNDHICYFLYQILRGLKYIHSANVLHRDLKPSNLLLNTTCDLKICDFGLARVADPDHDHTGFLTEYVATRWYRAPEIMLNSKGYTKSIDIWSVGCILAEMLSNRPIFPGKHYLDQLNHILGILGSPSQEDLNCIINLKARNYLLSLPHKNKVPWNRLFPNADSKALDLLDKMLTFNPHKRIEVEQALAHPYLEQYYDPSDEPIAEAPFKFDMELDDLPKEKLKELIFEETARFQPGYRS
# [11] = target: T11, panel of 442 kinases (Homo sapiens, UniProt Q96L34); conditions: kinase MARK4; for remaining activity at 1 µM: read-out: % of control at 1 µM
# T11 construct: purchased Ambit Biosciences (scanMAXX KINOMEscan)
# T11 sequence (Q96L34 1-752): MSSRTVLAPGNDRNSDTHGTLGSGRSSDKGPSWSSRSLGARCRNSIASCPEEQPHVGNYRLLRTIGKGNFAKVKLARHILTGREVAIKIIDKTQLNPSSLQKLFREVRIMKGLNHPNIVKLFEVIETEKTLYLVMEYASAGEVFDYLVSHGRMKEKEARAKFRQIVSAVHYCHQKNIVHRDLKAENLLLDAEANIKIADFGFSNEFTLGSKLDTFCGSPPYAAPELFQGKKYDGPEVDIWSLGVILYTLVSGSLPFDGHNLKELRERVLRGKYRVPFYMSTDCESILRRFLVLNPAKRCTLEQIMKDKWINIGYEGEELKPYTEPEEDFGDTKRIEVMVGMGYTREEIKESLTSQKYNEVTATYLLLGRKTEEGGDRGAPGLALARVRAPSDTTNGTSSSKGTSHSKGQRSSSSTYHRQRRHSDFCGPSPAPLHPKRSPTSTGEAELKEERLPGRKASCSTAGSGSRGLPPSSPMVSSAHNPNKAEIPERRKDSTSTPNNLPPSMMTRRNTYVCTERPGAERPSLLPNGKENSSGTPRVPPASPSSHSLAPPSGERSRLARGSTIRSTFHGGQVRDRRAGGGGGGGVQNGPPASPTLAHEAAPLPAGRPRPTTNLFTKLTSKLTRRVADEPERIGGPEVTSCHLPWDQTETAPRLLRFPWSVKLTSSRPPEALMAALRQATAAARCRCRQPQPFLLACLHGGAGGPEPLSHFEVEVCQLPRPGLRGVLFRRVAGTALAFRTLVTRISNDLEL
# [12] = target: T12, panel of 442 kinases (Homo sapiens, UniProt P36897); conditions: kinase TGFBR1; for remaining activity at 1 µM: read-out: TGFBR1 (% of control at 1 µM)
# T12 construct: purchased Ambit Biosciences (scanMAXX KINOMEscan)
# T12 sequence (P36897 34-503): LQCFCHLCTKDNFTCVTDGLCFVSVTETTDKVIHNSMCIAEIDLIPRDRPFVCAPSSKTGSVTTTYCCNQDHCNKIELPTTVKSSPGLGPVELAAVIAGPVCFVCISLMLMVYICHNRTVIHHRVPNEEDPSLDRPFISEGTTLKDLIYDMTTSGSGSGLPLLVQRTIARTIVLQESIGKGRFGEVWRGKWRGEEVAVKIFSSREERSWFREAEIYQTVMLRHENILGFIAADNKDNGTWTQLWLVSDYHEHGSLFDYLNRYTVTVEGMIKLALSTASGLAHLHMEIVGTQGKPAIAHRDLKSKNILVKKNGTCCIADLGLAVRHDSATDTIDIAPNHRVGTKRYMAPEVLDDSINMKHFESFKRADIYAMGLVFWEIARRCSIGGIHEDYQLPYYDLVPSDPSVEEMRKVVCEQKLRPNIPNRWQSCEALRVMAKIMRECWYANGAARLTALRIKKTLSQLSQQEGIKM
# [13] = target: T13, panel of 442 kinases (Homo sapiens, UniProt P42338); conditions: kinase PIK3CB; 1 µM; read-out: % of control at 1 µM
# T13 construct: purchased Ambit Biosciences (scanMAXX KINOMEscan)
# T13 sequence (P42338 whole entry): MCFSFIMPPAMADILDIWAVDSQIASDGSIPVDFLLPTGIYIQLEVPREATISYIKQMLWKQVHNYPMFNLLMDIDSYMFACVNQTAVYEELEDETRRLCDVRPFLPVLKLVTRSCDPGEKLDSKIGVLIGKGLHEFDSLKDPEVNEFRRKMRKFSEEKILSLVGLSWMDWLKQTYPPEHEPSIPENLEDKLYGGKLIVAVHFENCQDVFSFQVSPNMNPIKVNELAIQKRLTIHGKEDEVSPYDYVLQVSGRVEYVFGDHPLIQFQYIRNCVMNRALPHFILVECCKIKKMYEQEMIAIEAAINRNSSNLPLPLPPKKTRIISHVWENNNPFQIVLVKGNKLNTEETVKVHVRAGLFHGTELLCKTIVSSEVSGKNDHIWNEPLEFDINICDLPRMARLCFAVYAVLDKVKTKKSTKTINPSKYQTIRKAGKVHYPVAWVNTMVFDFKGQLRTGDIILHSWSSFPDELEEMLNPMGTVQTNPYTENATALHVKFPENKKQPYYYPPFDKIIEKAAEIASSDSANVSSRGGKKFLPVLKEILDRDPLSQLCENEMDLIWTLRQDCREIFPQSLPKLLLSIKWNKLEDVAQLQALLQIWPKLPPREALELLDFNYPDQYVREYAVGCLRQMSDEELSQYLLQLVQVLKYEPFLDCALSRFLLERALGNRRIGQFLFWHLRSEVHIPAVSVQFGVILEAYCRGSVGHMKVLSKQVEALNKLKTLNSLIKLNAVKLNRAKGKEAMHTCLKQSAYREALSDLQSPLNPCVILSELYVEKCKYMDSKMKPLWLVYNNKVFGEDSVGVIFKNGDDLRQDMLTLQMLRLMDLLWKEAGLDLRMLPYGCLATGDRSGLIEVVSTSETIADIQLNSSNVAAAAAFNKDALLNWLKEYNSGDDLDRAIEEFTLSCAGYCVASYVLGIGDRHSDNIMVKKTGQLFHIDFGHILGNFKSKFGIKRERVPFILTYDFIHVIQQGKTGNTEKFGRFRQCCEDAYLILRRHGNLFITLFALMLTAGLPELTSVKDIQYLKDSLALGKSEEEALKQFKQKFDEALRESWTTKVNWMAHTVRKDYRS
# [14] = 10 µM, read-out: % of control at 10 µM
# T1 sequence (P53667 whole entry): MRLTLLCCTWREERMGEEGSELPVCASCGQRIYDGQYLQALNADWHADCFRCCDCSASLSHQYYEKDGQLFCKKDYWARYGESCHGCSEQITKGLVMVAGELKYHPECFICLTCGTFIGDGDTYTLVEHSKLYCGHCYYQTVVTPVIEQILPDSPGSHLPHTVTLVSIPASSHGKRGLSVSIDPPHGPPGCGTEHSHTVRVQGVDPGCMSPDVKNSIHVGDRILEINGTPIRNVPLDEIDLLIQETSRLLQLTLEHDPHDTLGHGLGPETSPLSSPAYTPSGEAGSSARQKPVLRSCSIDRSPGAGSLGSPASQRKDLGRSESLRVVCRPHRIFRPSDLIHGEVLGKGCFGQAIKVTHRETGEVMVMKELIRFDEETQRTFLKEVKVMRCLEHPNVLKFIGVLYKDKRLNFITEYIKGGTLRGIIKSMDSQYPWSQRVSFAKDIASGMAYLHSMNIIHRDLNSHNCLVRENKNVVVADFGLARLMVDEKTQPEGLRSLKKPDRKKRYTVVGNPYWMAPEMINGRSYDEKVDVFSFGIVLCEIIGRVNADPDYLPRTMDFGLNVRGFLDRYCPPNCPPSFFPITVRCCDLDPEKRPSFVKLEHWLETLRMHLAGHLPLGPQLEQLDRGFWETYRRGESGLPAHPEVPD
SMILES,remaining activity at 1 µM [1] [%],remaining activity at 1 µM [2] [%],remaining activity at 1 µM [3] [%],remaining activity at 1 µM [4] [%],remaining activity at 1 µM [5] [%],remaining activity at 1 µM ([6]; ABL1(F317I)-nonphosphorylated) [%],remaining activity at 1 µM ([6]; ABL1(F317I)-phosphorylated) [%],remaining activity at 1 µM [7] [%],remaining activity at 1 µM ([8]; ABL1(T315I)-nonphosphorylated) [%],remaining activity at 1 µM ([8]; ABL1(T315I)-phosphorylated) [%],remaining activity at 1 µM [9] [%],remaining activity at 1 µM [10] [%],remaining activity at 1 µM [11] [%],remaining activity at 1 µM [12] [%],remaining activity at 1 µM [13] [%],also measured
Nc1cc(C(F)(F)F)c(-c2cc(N3CCOCC3)nc(N3CCOCC3)n2)cn1 [Buparlisib],100,100,90,100,78,100,78,100,94,73,100,100,100,100,–,"remaining activity at 10 µM [1, 14]: 100%; remaining activity at 10 µM [2, 14]: 100%; remaining activity at 10 µM [3, 14]: 91%; remaining activity at 10 µM [4, 14]: 100%; remaining activity at 10 µM ([5]; 10 µM, read-out: SRPK2 (% of control at 10 µM)): 100%; remaining activity at 10 µM ([6]; ABL1(F317I)-nonphosphorylated): 100%; remaining activity at 10 µM ([6]; ABL1(F317I)-phosphorylated): 100%; remaining activity at 10 µM [7, 14]: 100%; remaining activity at 10 µM ([8]; ABL1(T315I)-nonphosphorylated): 78%; remaining activity at 10 µM ([8]; ABL1(T315I)-phosphorylated): 100%; remaining activity at 10 µM [9, 14]: 100%; remaining activity at 10 µM [10, 14]: 78%; remaining activity at 10 µM [11, 14]: 91%; remaining activity at 10 µM ([12]; 10 µM, read-out: TGFBR1 (% of control at 10 µM)): 100%"
COc1ncc(-c2ccc3nccc(-c4ccnnc4)c3c2)cc1NS(=O)(=O)c1ccc(F)cc1F [Omipalisib],100,84,100,91,100,100,100,86,98,81,100,100,83,100,0,–
"FC(F)c1nc2ccccc2n1-c1nc(N2CCOCC2)nc(N2CCOCC2)n1 [ZSTK474, 2-(difluoromethyl)-1-[4,6-di(4-morpholinyl)-1,3,5-triazin-2-yl]-1H-benzimidazole]",95,100,100,86,100,100,88,100,50,100,100,100,100,79,0,–
"Cn1c(=O)n(-c2ccc(C(C)(C)C#N)cc2)c2c3cc(-c4cnc5ccccc5c4)ccc3ncc21 [Dactolisib, 2-methyl-2-[4-(3-methyl-2-oxo-8-quinolin-3-yl-2,3-dihydroimidazo[4,5-c]quinolin-1-yl)-phenyl] propionitrile]",99,95,45,64,100,100,100,59,58,–,100,88,61,89,64,–
